The text below walks through data of article PMC9822497, “Identification of Polyphenol Derivatives as Novel SARS-CoV-2 and DENV Non-Nucleoside RdRp Inhibitors” (Molecules, 2022).

Like-named read-outs stand apart in the source and are kept apart here.

The target in data set [1] is SARS-CoV-2 RdRp complex nsp12/nsp8/nsp7 (Severe acute respiratory syndrome coronavirus 2, UniProt P0DTD1). The experiment in a line: biochemical. The settings on record: for inhibition at 50 µM: read-out: Inhibition Rate (%); for IC50: seven concentrations 0.4 to 100 μM, mean ± SD of two independent experiments, read-out: IC50 against SARS-CoV-2 RdRp.
For data set [2], the system named is SARS-CoV-2. The settings on record: cited from earlier work.
For the next data set, the system named is DENV. Set-up: method as in PMID 26574011, PMID 33160000. The settings on record: cited from earlier work.
Data set [3] in a line: in vitro. The settings on record: African green monkey.
The test system of data set [4] is SARS-CoV-2. The experiment in a line: microbe, parasite or virus in culture. It counts as cell-based. As to conditions: for EC50: Severe acute respiratory syndrome coronavirus 2, Vero C1008.
In data set [5] the test system is DENV3. As to the kind of experiment: DENV3 cell-based qRT-PCR antiviral assay in A549 cells. The settings on record: for EC50 / Selective Index: DENV3/A549. On the procedure: The virus DENV3 clinical strain and A549 cells were used in the cell-based qRT-PCR antiviral assays. Evaluation of antiviral activity was performed as described previously. Briefly, cells infected by dengue virus in the presence of 5-fold serial dilutions of compounds were maintained for 72 h. Supernatant was collected and the virus yield was measured by Cells Direct One-step qRT-PCR kit (Thermo Fisher), according to manufacturer’s instructions. Dose-response data were analyzed by nonlinear regression using GraphPad Prism software. The toxicity of compounds was evaluated in standard MTS analysis without virus in A549 cell line. Graphpad Prism 9.2.0 was used to calculate EC50 (half maximal effective concentration) and CC50 (half cytotoxic concentration) values.

In data set [6] the target is Dengue virus RdRp (DENV NS5) (Dengue virus type 3, UniProt Q6YMS4). As to the kind of experiment: Fluorescent plate DENV RdRp assay. Type of data set: biochemical. As to conditions: for IC50: purified recombinant Dengue virus RdRp, average ± SD of 2 independent experiments; for Detectable inhibition towards DENV RdRp: screen of Table 1 compounds. On the procedure: To further exploit pan-RNA virus inhibition of the compounds in Table 1, the compounds were evaluated as potential inhibitors of the RdRp domain of DENV NS5. We used a fluorescent-based assay to screen the compounds from Table 1 as potential DENV RdRp inhibitors.
Chain of Dengue virus RdRp (DENV NS5) (Q6YMS4 2491-3390 limits assumed): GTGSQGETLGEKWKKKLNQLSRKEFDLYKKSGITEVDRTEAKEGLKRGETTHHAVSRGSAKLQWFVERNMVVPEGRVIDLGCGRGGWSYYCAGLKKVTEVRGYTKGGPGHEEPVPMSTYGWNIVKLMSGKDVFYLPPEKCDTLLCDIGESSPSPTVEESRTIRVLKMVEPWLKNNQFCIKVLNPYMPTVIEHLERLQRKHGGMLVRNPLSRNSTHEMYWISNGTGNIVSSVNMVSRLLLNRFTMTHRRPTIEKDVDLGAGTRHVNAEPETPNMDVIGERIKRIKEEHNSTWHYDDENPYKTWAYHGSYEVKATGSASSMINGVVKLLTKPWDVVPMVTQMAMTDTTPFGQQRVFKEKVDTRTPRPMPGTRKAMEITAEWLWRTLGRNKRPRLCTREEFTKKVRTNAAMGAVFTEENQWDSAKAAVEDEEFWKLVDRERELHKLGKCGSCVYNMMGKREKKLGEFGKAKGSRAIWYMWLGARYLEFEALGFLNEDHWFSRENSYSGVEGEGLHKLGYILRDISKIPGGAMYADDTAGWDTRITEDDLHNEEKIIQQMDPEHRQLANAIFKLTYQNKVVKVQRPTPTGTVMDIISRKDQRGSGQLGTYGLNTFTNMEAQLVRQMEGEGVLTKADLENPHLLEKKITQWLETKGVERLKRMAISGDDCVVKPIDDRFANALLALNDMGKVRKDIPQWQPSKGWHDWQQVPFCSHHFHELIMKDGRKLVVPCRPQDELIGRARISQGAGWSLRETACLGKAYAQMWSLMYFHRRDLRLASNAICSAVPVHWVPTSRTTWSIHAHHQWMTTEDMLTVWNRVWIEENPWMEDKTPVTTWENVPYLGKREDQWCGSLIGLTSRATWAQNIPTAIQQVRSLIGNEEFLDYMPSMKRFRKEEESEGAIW
Expression and purification of recombinant Dengue virus NS5 has been described previously. Florescent plate assay based on poly rC RNA and the fluorescent dye PicoGreen was well established for screening inhibitors against Dengue virus RdRp activity. RdRp assays were performed in a 60 μL reaction mixture containing 1.5 μM DENV NS5, 1 µg poly rC, 100 μM GTP, various concentrations of compounds, 5% DMSO, 40 mM Tris–HCl (pH 7.0), 2 mM MnCl2, and 5 mM DTT. The reaction was incubated at 30 °C for 60 min and terminated with 10 mM EDTA after which 100 μL of 200-fold diluted fluorescent dye PicoGreen in TE buffer was added to each well and incubated for 5 min at room temperature. Microplate reader was used to quantitate the amount of dsRNA Fluorescence, under excitation and emission wavelengths of 480 and 520 nm, respectively. Dose-response data were analyzed by nonlinear regression using GraphPad Prism 9.2.0 software. The mean of IC50 values and standard deviation (SD) were determined from the results of two independent experiments.

A short description of data set [7]: in vitro. As to conditions: human.
The next data set deals with DENV2. The arrangement: method as in PMID 34424050. As to conditions: DENV2 in vitro; cited from earlier work.
Data set [8] deals with DENV3. Set-up: method as in PMID 34424050. As to conditions: DENV3 in vitro; cited from earlier work.
Setting [9] is: preliminary screening, single concentration of 50 μM.

As to `COc1ccc(CNC(=O)C2CN(C(=O)c3cc(O)c(O)c(O)c3)CCN2S(=O)(=O)c2ccc(N)cc2)cc1` (centres unmarked) [DF-64], the melting point is 202 to 205 °C. In addition, in [1], the inhibition at 50 µM amounted to 80%.

`CC(C)(C)OC(=O)N1CCC2(CCN(C(=O)C3CN(C(=O)c4cc(O)c(O)c(O)c4)CCN3S(=O)(=O)c3ccc(N)cc3)C2)C1` (centres unmarked) [DF-71] gave a melting point of 192 to 195 °C. In data set [1], the inhibition at 50 µM was found to be 70%.

For the compound `Nc1ccc(S(=O)(=O)N2CCN(C(=O)c3cc(O)c(O)c(O)c3)CC2C(=O)NCc2ccc(-c3ccccc3)cc2)cc1` (centres unmarked) [DF-69], the melting point lay within 192 to 195 °C. In addition, the inhibition at 50 µM in data set [1] turned out to be 72%.

`Nc1ccc(S(=O)(=O)N2CCN(C(=O)c3cc(O)c(O)c(O)c3)CC2C(=O)Nc2ccccc2)cc1` (centres unmarked) [DF-57]: the melting point lay within 173 to 176 °C. The inhibition at 50 µM in data set [1] worked out at 85%.

For `CN(C(=O)C1CN(C(=O)c2cc(O)c(O)c(O)c2)CCN1S(=O)(=O)c1ccc(N)cc1)c1ccccc1` (centres unmarked) [DF-63], the melting point was 172 to 175 °C. For the same compound, in [1], the inhibition at 50 µM amounted to 75%.

On to `Nc1ccc(S(=O)(=O)N2CCN(C(=O)c3cc(O)c(O)c(O)c3)CC2C(=O)NCc2cccc3ccccc23)cc1` (centres unmarked) [DF-67], for which the melting point lay within 189 to 192 °C. Also, the inhibition at 50 µM in [1] is 83%.

As for `O=C(O)[C@H]1O[C@@H](Oc2cc3oc(-c4ccccc4)cc(=O)c3c(O)c2O)[C@H](O)[C@@H](O)[C@@H]1O` [Baicalin], the EC50 with SARS-CoV-2 [2] (SARS-CoV-2 inhibitors) was 9 µM.

Compound `COc1ccc(CNC(=O)C2CN(S(=O)(=O)c3ccc(N)cc3)CCN2C(=O)c2cc(O)c(O)c(O)c2)cc1` (centres unmarked) [DF-35] gave a melting point of 192 to 195 °C. The inhibition at 50 µM in [1] turned out to be 81%.

For the compound `O=C(NO)c1ncc(CS(=O)(=O)c2ccccc2)c(CO)c1O` [DMB220], the EC50 in the data set with DENV is 2.7 ± 0.6 µM.

As to `Nc1ccc(S(=O)(=O)N2CCN(C(=O)c3cc(O)c(O)c(O)c3)C(C(=O)NCc3ccco3)C2)cc1` (centres unmarked) [DF-36], the melting point is 181 to 184 °C. In data set [1], the “Inhibition of RdRp activity at 10 μM (gel)” value (“Inhibition of RdRp activity” for short) is recorded as “remained partially active” and the inhibition at 50 µM turned out to be 87%.

`O=c1cc(-c2ccccc2)oc2cc(O)c(O)c(O)c12` [Baicalein, reference compound] returned a CC50 in the data set “in vitro [3]” of 86 µM. Further, in the data set with SARS-CoV-2 [4], the “Selective Index” value was 19.1 and the midpoint of the response, the EC50, lay at 4.5 µM. The “Inhibition of RdRp activity” value in data set [1] is on record as “remained partially active”.

In the case of `N#Cc1ccc(S(=O)(=O)N2CCN(C(=O)c3cc(O)c(O)c(O)c3)C(C(=O)NCc3ccc(-c4ccccc4)cc3)C2)cc1` (centres unmarked) [DF-51], in the data set with DENV3 [5], the “Inhibition of DENV3 in A549 cells” value is “moderate inhibition”, a half-maximal response (EC50) required 21.5 ± 14.9 µM and the “Selective Index” value is above 4.6. In addition, in data set [6], the half-maximal inhibitory concentration (IC50) stood at 4.8 ± 0.7 µM and the “Detectable inhibition towards DENV RdRp” value was “detectable inhibition”. Also, the CC50 in “in vitro [3]” is above 100 µM. The same compound registered a CC50 in “in vitro [7]” above 100 µM. For the same compound, in the data set on SARS-CoV-2 [4], the “Antiviral activity against SARS-CoV-2 in vitro” value is “no significant antiviral activity” and the EC50 is above 89 µM. For the same compound, in [1], the “Inhibition of RdRp activity” value is on record as “remained partially active” and the IC50 came out at 22 ± 1.3 µM. Besides, the inhibition at 50 µM in data set [1] (setting [9]) worked out at 90%.

Turning to `CC(C)C(=O)OC[C@H]1O[C@@H](n2ccc(NO)nc2=O)[C@H](O)[C@@H]1O` [Molnupiravir], the EC50 in the data set on SARS-CoV-2 [2] (nucleoside RdRp inhibitors) is 0.3 µM.

With `CCC(CC)COC(=O)[C@H](C)N[P@](=O)(OC[C@H]1O[C@@](C#N)(c2ccc3c(N)ncnn23)[C@H](O)[C@@H]1O)Oc1ccccc1` [Remdesivir, reference compound], the CC50 in “in vitro [3]” came out at 10.1 µM. Besides, in the data set on SARS-CoV-2 [4], it took 0.046 ± 0.0002 µM to reach a half-maximal effect (EC50).

As to `Nc1ccc(S(=O)(=O)N2CCN(C(=O)c3cc(O)c(O)c(O)c3)C(C(=O)NCc3ccc(-c4ccccc4)cc3)C2)cc1` (centres unmarked) [DF-47], the melting point fell in the range of 193 to 196 °C. In the data set on DENV3 [5], the “Inhibition of DENV3 in A549 cells” value is “moderate inhibition”, the response was half-maximal at 51.9 ± 26.3 µM (EC50) and the “Selective Index” value is on record as above 1.9. For the same compound, in data set [6], the 50% inhibitory concentration (IC50) came out at 14 ± 2.3 µM and the “Detectable inhibition towards DENV RdRp” value is on record as “detectable inhibition”. The compound also returned a CC50 in “in vitro [3]” above 100 µM. Besides, in “in vitro [7]”, the CC50 is above 100 µM. Moreover, in the data set on SARS-CoV-2 [4], the “Antiviral activity against SARS-CoV-2 in vitro” value is given as “no significant antiviral activity” and the EC50 is above 100 µM. In data set [1], the “Inhibition of RdRp activity” value was “remained partially active” and the IC50 worked out at 9.2 ± 1.1 µM. Besides, in [1] (setting [9]), the inhibition at 50 µM worked out at 92%.

For the compound Bemnifosbuvir, the EC50 in the data set with DENV2 is 0.48 µM; with DENV3 [8], 0.77 µM. Besides, in the data set on SARS-CoV-2 [2], the EC90 is 0.47 µM.

For `Nc1ccc(S(=O)(=O)N2CCN(C(=O)c3cc(O)c(O)c(O)c3)CC2C(=O)NCc2cccs2)cc1` (centres unmarked) [DF-68], the melting point lay within 213 to 216 °C. Also, in data set [1], the inhibition at 50 µM stood at 73%.

For orientation: melting point means the temperature, or range, at which the solid turns liquid. A word on the inhibition: it is the share of the control response that was lost under treatment. The term EC50 denotes the concentration needed to bring the measured effect to its halfway point. As usually defined, the IC50 is the point on the concentration scale where inhibition reaches its midpoint. For orientation: EC90 means the concentration needed for an effect of 90%.
